Data as given in publication PMC11331178 (Journal of Advanced Research, 2023).

Target: T1, TFEB (Homo sapiens, UniProt P19484)
T1 sequence (P19484 1-476 limits assumed): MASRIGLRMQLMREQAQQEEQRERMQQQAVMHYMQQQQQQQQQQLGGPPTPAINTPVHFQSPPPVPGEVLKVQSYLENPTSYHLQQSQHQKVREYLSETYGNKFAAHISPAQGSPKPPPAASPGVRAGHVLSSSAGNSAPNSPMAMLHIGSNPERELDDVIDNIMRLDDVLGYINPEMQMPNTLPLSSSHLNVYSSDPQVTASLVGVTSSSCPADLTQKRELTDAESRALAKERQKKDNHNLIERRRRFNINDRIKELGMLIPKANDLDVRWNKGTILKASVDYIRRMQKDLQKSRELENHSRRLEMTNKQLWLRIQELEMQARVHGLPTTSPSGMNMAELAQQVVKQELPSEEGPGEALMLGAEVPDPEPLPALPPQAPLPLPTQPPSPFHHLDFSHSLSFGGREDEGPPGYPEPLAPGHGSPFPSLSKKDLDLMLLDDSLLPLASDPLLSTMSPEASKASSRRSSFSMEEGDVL
Assay: SPR, Biacore S200, CM5 chip
Format: binding

- Kd: 83 µM
SMILES: C=C[C@]1(C)CC[C@@H](C(=C)C)C[C@H]1C(=C)C [β-ELE]
